The values that follow come from US20250388553A1 (Incyte Corporation, priority 2018, published 2025).

In test [1] the target is PI3Kγ (p110γ) Recombinant Human Protein (Homo sapiens (Human), UniProt P48736). The test is described as follows: PI3K-γ scintillation proximity assay. In kind it is biochemical. The note with it: scintillation proximity assay, recombinant human p110γ. The text has this:
Example B. PI3K-γ Scintillation Proximity Assay
Materials: [γ-^33P]ATP (10 mCi/mL) and Wheat Germ Agglutinin (WGA) YSi SPA Scintillation Beads was purchased from Perkin Elmer (Waltham, MA). Lipid kinase substrate, D-myo-Phosphatidylinositol 4,5-bisphosphate (PtdIns(4,5)P2)D (+)-sn-1,2-di-O-octanoylglyceryl, 3-O-phospho linked (PIP2), CAS 204858-53-7, was purchased from Echelon Biosciences (Salt Lake City, UT). PI3Kγ (p110γ) Recombinant Human Protein was purchased from Life technology (Grand Island, NY). ATP, MgCl2, DTT, EDTA, MOPS and CHAPS were purchased from Sigma Aldrich (St. Louis, MO).
(§1) The kinase reaction was conducted in polystyrene 384-well Greiner Bio-one white plate from Thermo Fisher Scientific in a final volume of 25 L. Inhibitors were first diluted serially in DMSO and added to the plate wells before the addition of other reaction components. The final concentration of DMSO in the assay was 2%. The PI3Kγ assay was carried out at room temperature in 20 mM MOPS, pH 6.7, 10 mM MgCl2, 5 mM DTT and CHAPS 0.03%. Reactions were initiated by the addition of ATP, the final reaction mixture consisted of 20 µM […], 0.5 μCi [γ-^33P]ATP, 13 nM PI3Kγ. Reactions were incubated for 120 min and terminated by the addition of 40 μL SPA beads suspended in quench buffer: 163 mM potassium phosphate pH 7.8, 20% glycerol, 25 mM EDTA. The final concentration of SPA beads is 1.0 mg/mL. After the plate sealing, plates were shaken overnight at room temperature and centrifuged at 1500 rpm for 10 min, the radioactivity of the product was determined by scintillation counting on Topcount (Perkin-Elmer). IC50 determination was performed by fitting the curve of percent of the solvent control activity versus the log of the inhibitor concentration using the GraphPad Prism 6.0 software.
(§2) The compounds of the Examples were tested in the assays described in Examples A, B and C and found to have the IC50s are shown in Tables A1, A2, A3 and A4.

Test [2] deals with PI3Kδ (p1106/p85a) Recombinant Human Protein (Homo sapiens (Human), UniProt O00329). Briefly: PI3Kδ scintillation proximity assay. In kind it is biochemical. The note with it: scintillation proximity assay, recombinant human PI3Kδ.
Chain of PI3Kδ (p1106/p85a) Recombinant Human Protein (O00329 whole entry): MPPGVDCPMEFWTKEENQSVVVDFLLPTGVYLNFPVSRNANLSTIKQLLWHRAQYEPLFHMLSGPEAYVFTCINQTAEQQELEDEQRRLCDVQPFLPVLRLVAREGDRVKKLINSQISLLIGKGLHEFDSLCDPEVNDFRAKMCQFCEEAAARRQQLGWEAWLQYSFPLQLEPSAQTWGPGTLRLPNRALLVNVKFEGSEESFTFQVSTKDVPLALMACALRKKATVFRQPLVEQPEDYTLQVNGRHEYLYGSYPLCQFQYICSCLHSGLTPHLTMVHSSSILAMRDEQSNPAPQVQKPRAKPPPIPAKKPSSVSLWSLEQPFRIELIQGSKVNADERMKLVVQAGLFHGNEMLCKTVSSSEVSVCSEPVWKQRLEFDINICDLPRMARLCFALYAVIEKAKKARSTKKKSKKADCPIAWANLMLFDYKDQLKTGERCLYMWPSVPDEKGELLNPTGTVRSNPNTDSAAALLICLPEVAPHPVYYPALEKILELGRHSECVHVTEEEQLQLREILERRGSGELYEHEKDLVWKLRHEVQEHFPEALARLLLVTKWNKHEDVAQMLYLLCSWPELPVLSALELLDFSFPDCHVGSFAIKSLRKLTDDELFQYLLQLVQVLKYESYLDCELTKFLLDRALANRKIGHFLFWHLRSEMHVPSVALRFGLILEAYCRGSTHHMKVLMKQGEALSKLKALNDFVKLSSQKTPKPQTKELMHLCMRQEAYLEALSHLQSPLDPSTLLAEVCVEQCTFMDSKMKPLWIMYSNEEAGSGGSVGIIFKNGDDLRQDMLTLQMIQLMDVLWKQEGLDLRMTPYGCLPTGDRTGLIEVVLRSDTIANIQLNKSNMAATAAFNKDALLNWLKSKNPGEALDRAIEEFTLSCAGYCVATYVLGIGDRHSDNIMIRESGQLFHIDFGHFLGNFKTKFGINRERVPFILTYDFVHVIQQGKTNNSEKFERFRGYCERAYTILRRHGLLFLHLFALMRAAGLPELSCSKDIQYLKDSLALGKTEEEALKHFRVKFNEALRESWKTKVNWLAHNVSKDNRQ
Chain of PI3Kδ (p1106/p85a) Recombinant Human Protein (P27986 whole entry partner): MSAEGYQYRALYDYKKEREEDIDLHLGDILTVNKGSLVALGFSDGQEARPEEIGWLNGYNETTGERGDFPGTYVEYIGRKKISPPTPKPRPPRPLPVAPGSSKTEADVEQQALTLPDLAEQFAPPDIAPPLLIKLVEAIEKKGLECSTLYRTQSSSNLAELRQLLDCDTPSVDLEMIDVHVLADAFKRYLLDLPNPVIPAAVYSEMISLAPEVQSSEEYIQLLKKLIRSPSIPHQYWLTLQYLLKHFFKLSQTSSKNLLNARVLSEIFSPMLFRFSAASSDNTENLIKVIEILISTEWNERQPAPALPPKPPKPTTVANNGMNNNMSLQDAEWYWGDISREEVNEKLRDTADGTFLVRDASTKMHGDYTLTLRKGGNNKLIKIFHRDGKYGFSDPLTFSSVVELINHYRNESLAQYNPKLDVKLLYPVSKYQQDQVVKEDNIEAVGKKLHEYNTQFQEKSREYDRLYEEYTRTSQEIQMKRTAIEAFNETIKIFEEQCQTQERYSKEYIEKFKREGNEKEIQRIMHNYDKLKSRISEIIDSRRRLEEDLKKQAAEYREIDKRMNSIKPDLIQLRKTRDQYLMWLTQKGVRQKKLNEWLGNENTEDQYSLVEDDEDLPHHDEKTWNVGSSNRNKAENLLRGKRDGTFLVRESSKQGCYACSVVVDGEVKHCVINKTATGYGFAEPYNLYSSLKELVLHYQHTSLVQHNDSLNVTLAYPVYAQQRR
Description: Example C. PI3Kδ Scintillation Proximity Assay
Materials: [γ-^33P]ATP (10 mCi/mL) and Wheat Germ Agglutinin (WGA) YSi SPA Scintillation Beads was purchased from Perkin Elmer (Waltham, MA). Lipid kinase substrate, D-myo-Phosphatidylinositol 4,5-bisphosphate (PtdIns(4,5)P2)D (+)-sn-1,2-di-O-octanoylglyceryl, 3-O-phospho linked (PIP2), CAS 204858-53-7, was purchased from Echelon Biosciences (Salt Lake City, UT). PI3Kδ (p1106/p85a) Recombinant Human Protein was purchased from Eurofins (St Charles, MO). ATP, MgCl2, DTT, EDTA, MOPS and CHAPS were purchased from Sigma Aldrich (St. Louis, MO).
as §1, with “25 μL.” for “25 L.”, “The PI3Kδ” for “The PI3Kγ”, “[γ-^33P]ATP, 3.4” for “[γ-^33P]ATP, 13”, “nM PI3Kδ.” for “nM PI3Kγ.”, “Topcount (PerkinElmer).” for “Topcount (Perkin-Elmer).”
as §2
(In general: In a scintillation proximity assay essentially only radioactivity close to the scintillant gives light.)

SMILES strings stand for the structures. Structures can show the parent of a compound that is named as a salt.

Chain of PI3Kγ (p110γ) Recombinant Human Protein (P48736 whole entry): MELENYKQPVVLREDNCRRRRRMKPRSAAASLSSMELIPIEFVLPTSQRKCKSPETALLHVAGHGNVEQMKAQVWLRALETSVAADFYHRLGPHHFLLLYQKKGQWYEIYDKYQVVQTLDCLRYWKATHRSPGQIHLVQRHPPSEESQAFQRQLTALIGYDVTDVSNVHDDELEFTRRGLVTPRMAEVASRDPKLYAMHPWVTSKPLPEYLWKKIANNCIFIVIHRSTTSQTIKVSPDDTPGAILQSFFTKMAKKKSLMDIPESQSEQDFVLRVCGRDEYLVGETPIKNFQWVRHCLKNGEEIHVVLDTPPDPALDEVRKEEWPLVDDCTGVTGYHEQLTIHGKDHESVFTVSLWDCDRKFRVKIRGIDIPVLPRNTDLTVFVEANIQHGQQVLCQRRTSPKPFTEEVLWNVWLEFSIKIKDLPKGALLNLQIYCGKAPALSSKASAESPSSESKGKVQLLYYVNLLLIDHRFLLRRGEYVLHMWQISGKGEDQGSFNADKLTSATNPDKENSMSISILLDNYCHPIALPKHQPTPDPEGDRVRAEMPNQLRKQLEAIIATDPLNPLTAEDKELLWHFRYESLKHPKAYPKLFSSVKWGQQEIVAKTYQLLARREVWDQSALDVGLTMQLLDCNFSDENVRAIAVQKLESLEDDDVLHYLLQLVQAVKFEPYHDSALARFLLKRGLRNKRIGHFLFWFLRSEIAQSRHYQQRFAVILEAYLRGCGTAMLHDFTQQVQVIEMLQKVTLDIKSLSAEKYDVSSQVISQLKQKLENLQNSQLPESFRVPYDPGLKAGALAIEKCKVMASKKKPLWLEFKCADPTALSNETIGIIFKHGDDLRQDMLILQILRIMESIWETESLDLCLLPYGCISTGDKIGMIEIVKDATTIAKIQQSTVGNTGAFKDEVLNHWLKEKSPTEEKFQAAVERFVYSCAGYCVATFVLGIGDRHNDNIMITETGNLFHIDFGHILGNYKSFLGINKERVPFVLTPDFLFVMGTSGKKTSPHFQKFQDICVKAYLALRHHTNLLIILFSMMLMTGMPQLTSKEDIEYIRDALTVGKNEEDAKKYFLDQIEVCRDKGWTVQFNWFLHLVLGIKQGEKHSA

`Cc1ccc(C(O)(C(N)=O)C(F)(F)F)cc1-c1cnc(N)c(C(=O)NCC2(C#N)CCC2)n1` (stereo not drawn) [Example 16, 3-amino-6-(5-(3-amino-1,1,1-trifluoro-2-hydroxy-3-oxopropan-2-yl)-2-methylphenyl)-N-((1-cyanocyclobutyl)methyl)pyrazine-2-carboxamide trifluoroacetate]: the IC50 in test [1] (Table A1) and in test [2] (Table A1) was less than 100 nM throughout.
As to `CC[C@@H](CC#N)NC(=O)c1nc(-c2cc(C(O)(C(N)=O)C(F)(F)F)ccc2C)cnc1N` (stereo partly drawn) [Example 20, 3-amino-6-(5-(3-amino-1,1,1-trifluoro-2-hydroxy-3-oxopropan-2-yl)-2-methylphenyl)-N-((S)-1-cyanobutan-2-yl)pyrazine-2-carboxamide trifluoroacetate], the IC50 in test [1] (Table A1) and in test [2] (Table A1) was less than 100 nM each time.
For `COC(C)(C)CNC(=O)c1nc(-c2cc(C(O)(C(N)=O)C(F)(F)F)ccc2C)cnc1N` (stereo not drawn) [Example 21, 3-amino-6-(5-(3-amino-1,1,1-trifluoro-2-hydroxy-3-oxopropan-2-yl)-2-methylphenyl)-N-(2-methoxy-2-methylpropyl)pyrazine-2-carboxamide trifluoroacetate], the IC50 in test [1] (Table A1) and in test [2] (Table A1) was less than 100 nM each time.
`Cc1ccc(C(O)(C(N)=O)C(F)(F)F)cc1-c1cnc(N)c(C(=O)NC23CC(C#N)(C2)C3)n1` (stereo not drawn) [Example 23, 3-amino-6-(5-(3-amino-1,1,1-trifluoro-2-hydroxy-3-oxopropan-2-yl)-2-methylphenyl)-N-(3-cyanobicyclo[1.1.1]pentan-1-yl)pyrazine-2-carboxamide trifluoroacetate]: the IC50 in test [1] (Table A1) and in test [2] (Table A1) was less than 100 nM each time.
On to `Cc1ccc(C(O)(C(N)=O)C(F)(F)F)cc1-c1cnc(N)c(C(=O)NC23CCC(C#N)(C2)C3)n1` (stereo not drawn) [Example 24, 3-amino-6-(5-(3-amino-1,1,1-trifluoro-2-hydroxy-3-oxopropan-2-yl)-2-methylphenyl)-N-(4-cyanobicyclo[2.1.1]hexan-1-yl)pyrazine-2-carboxamide trifluoroacetate], for which the IC50 in test [1] (Table A1) and in test [2] (Table A1) was less than 100 nM throughout.
Turning to `Cc1ccc(C(O)(C(N)=O)C(F)(F)F)cc1-c1cnc(N)c(C(=O)NC23CCC(C#N)(CC2)CC3)n1` (stereo not drawn) [Example 25, 3-amino-6-(5-(3-amino-1,1,1-trifluoro-2-hydroxy-3-oxopropan-2-yl)-2-methylphenyl)-N-(4-cyanobicyclo[2.2.2]octan-1-yl)pyrazine-2-carboxamide trifluoroacetate], the 50% inhibitory concentration (IC50) in test [1] (Table A1) and in test [2] (Table A1) was less than 100 nM in each case.
As for `Cc1ccc(C(O)(C(N)=O)C(F)(F)F)cc1-c1cnc(N)c(C(=O)N2CCC2(C)C)n1` (stereo not drawn) [Example 27, 2-(3-(5-amino-6-(2,2-dimethylazetidine-1-carbonyl)pyrazin-2-yl)-4-methylphenyl)-3,3,3-trifluoro-2-hydroxypropanamide], the IC50 in test [1] (Table A1) and in test [2] (Table A1) was less than 100 nM in each case.
For the molecule `Cc1ccc(C(O)(C(N)=O)C(F)(F)F)cc1-c1cnc(N)c(C(=O)N2CCc3cccnc32)n1` (stereo not drawn) [Example 28, 2-(3-(5-amino-6-(2,3-dihydro-1H-pyrrolo[2,3-b]pyridine-1-carbonyl)pyrazin-2-yl)-4-methylphenyl)-3,3,3-trifluoro-2-hydroxypropanamide], the figures for the IC50 in test [1] (Table A1) and in test [2] (Table A1) were less than 100 nM and 100 to 500 nM, respectively.
As for `CCNC(=O)c1nc(-c2cc(C(O)(C(N)=O)C(F)F)ccc2C)cnc1N` (stereo not drawn) [Example 32, 3-amino-6-(5-(1-amino-3,3-difluoro-2-hydroxy-1-oxopropan-2-yl)-2-methylphenyl)-N-ethylpyrazine-2-carboxamide], the half-maximal inhibitory concentration (IC50) in test [1] (Table A1) and in test [2] (Table A1) was less than 100 nM in each case.
Regarding `Cc1ccc(C(O)(C(N)=O)C(F)F)cc1-c1cnc(N)c(C(=O)NCC2(C#N)CC2)n1` (stereo not drawn) [Example 33, 3-amino-6-(5-(1-amino-3,3-difluoro-2-hydroxy-1-oxopropan-2-yl)-2-methylphenyl)-N-((1-cyanocyclopropyl)methyl)pyrazine-2-carboxamide], the IC50 in test [1] (Table A1) and in test [2] (Table A1) was less than 100 nM in each case.
As to `Cc1ccc(C(O)(C(N)=O)C(F)F)cc1-c1cnc(N)c(C(=O)NC2CCC(F)(F)CC2)n1` (stereo not drawn) [Example 34, 3-amino-6-(5-(1-amino-3,3-difluoro-2-hydroxy-1-oxopropan-2-yl)-2-methylphenyl)-N-(4,4-difluorocyclohexyl)pyrazine-2-carboxamide], the half-maximal inhibitory concentration (IC50) in test [1] (Table A1) and in test [2] (Table A1) was less than 100 nM in each case.
Regarding `Cc1ccc(C(O)(C(N)=O)C(F)F)cc1-c1cnc(N)c(C(=O)NC(C)(C)CO)n1` (stereo not drawn) [Example 35, 3-amino-6-(5-(1-amino-3,3-difluoro-2-hydroxy-1-oxopropan-2-yl)-2-methylphenyl)-N-(1-hydroxy-2-methylpropan-2-yl)pyrazine-2-carboxamide], the IC50 in test [1] (Table A1) and in test [2] (Table A1) was less than 100 nM throughout.
As to `Cc1ccc(C(O)(C(N)=O)C(F)F)cc1-c1cnc(N)c(C(=O)NC2CCOCC2)n1` (stereo not drawn) [Example 36, 3-amino-6-(5-(1-amino-3,3-difluoro-2-hydroxy-1-oxopropan-2-yl)-2-methylphenyl)-N-(tetrahydro-2H-pyran-4-yl)pyrazine-2-carboxamide], the IC50 in test [1] (Table A1) and in test [2] (Table A1) was less than 100 nM throughout.
With `Cc1ccc(C(O)(C(N)=O)C(F)F)cc1-c1cnc(N)c(C(=O)NCCC2CCOC2)n1` (stereo not drawn) [Example 37, 3-amino-6-(5-(1-amino-3,3-difluoro-2-hydroxy-1-oxopropan-2-yl)-2-methylphenyl)-N-(2-(tetrahydrofuran-3-yl)ethyl)pyrazine-2-carboxamide], the IC50 in test [1] (Table A1) and in test [2] (Table A1) was less than 100 nM each time.
In the case of `Cc1ccc(C(O)(C(N)=O)C(F)(F)F)cc1-c1cnc(N)c(C(=O)NCC(F)(F)F)n1` (stereo not drawn) [Example 38, 3-Amino-6-(5-(3-amino-1,1,1-trifluoro-2-hydroxy-3-oxopropan-2-yl)-2-methylphenyl)-N-(2,2,2-trifluoroethyl)pyrazine-2-carboxamide trifluoroacetate], the IC50 in test [1] (Table A1) and in test [2] (Table A1) was less than 100 nM each time.
Take `Cc1ccc(C(O)(CNC(=O)C(C)(C)O)C(F)(F)F)cc1-c1cnc(N)c(C(=O)NC(C)C)n1` (stereo not drawn) [Example 41, 3-Amino-N-isopropyl-6-(2-methyl-5-(1,1,1-trifluoro-2-hydroxy-3-(2-hydroxy-2-methylpropanamido)propan-2-yl)phenyl)pyrazine-2-carboxamide trifluoroacetate]: the values for the IC50 in test [1] (Table A1) and in test [2] (Table A1) were less than 100 nM and 100 to 500 nM, respectively.
As for `C/C=C\c1nc(-c2cc(C(O)(C(N)=O)C(F)(F)F)ccc2C)cnc1N` (stereo not drawn) [Example 44, (Z)-2-(3-(5-amino-6-(prop-1-en-1-yl)pyrazin-2-yl)-4-methylphenyl)-3,3,3-trifluoro-2-hydroxypropanamide], the IC50 (in general, the concentration that inhibits the measured activity by half) is less than 100 nM in test [1] (Table A2) and 100 to 500 nM in test [2] (Table A2).
For `Cc1ccc(C(O)(C(N)=O)C(F)(F)F)cc1-c1cnc(N)c(C(F)(F)F)n1` (stereo not drawn) [Example 46, 2-(3-(5-Amino-6-(trifluoromethyl)pyrazin-2-yl)-4-methylphenyl)-3,3,3-trifluoro-2-hydroxypropanamide trifluoroacetate], the figures for the IC50 in test [1] (Table A2) and in test [2] (Table A2) were less than 100 nM and 100 to 500 nM, respectively.
